According to US11396497B2, “Proteasome inhibitors” (New Mexico Tech University Research Park Corporation, priority 2018, dated 2022):

What was measured:
[1] = biological target: T1, yeast proteasome yβ2 subunit (Saccharomyces cerevisiae, UniProt P25043+P25451); experiment: Subunit selectivity, purified yeast proteasome yβ2; type: biochemical
T1 construct: measured using 8 μg/mL of purified yCP or iCP
Experimental: The compounds were diluted with lysis buffer; 10 μL of the compound-containing solution was added to the test wells at ten times the final concentration. […] The results are reported as the average of at least 3 technical replicates of IC50 values for proteasome inhibition.
Values and standard deviations were calculated from an assay performed in biological triplicate.

[2] = test system: Jurkat cells; experiment: Apoptosis assay (Annexin V-FITC, flow cytometry); type: cell-based, human
Experimental: Apoptosis assay: 1 mL of Jurkat cells, at a density of 500,000 cells per milliliter, was added to 12 wells of a 24 well microtiter plate. Cells were treated immediately using a serial dilution of the synthesized proteasome inhibitors, the benzyl ester of Cystargolide B and the belactosin-cystargolide hybrid molecule. 10 μM Paclitaxel and 0.2 μg/mL Doxorubicin hydrochloride were used as positive apoptosis controls and non-treated cells were used as a negative control. The cells were then incubated for 24 h at 37° C. and 5% CO2. The following day, Annexin V-FITC conjugate was used to assay for the expression of phosphatidyl serine on the […] of the cellular membrane. The cells were briefly pelleted, aspirated, and resuspended in 300 μL of a reaction mixture containing 0.2 μL/mL of the Annexin V FITC solution, 2 mM CaCl2 to enable binding, and 2 μg/mL propidium iodide as an indicator of cell permeability. Each sample was incubated at 37° C. for 20 minutes, and then analyzed by flow cytometry. Single, whole cells were selected based on the forward and the side-scatter. With an excitation of 488 nm Annexin V-FITC binding was identified using FL1 533 nm emission. Propidium iodide staining was selected based on FL2 585 nm emission. […] Measurements were taken in biological triplicate for each sample, and the results were confirmed in technical triplicate.

CC[C@H](C)[C@@H]1C(=O)O[C@H]1C(=O)N[C@H](C(=O)N[C@H](C(=O)OCc1ccccc1)C(C)C)C(C)C [Compound 8, Benzyl ((2R,3S)-3-((S)-sec-butyl)-4-oxooxetane-2-carbonyl)-L-valyl-L-valinate]
IC50 [1]: 26.1 ± 2.38 µM | induction of apoptosis [2]: induction of apoptosis
